Assay results: ChEMBL document CHEMBL1201862, “PubChem BioAssay data set” (2004)
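48-hour exposure; five concentrations; linearly interpolated endpoints. At the GI50, growth is halved.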 Active and inactive are the calls of the source. Rule as the data show it: active = GI50 up to about 1.1 µM and inactive = higher.

Tests used:
Assay in all cases: inhibition of tumour cell growth, NCI panel, 48 h
A549 = system: A549
ACHN = system: ACHN
COLO 205 = system: COLO 205
HCC 2998 = system: HCC 2998
HL-60 = system: HL-60
HOP-62 = system: HOP-62
HT-29 = system: HT-29
IGROV-1 = system: IGROV-1
K562 = system: K562
NCI-H522 = system: NCI-H522
OVCAR-3 = system: OVCAR-3
OVCAR-8 = system: OVCAR-8
SK-MEL-5 = system: SK-MEL-5
SNB-19 = system: SNB-19
SNB-75 = system: SNB-75
SW-620 = system: SW-620
TK-10 = system: TK-10
UACC-257 = system: UACC-257
DU-145 = system: DU-145

c1ccc(P(=Nc2ccccc2N=P(c2ccccc2)(c2ccccc2)c2ccccc2)(c2ccccc2)c2ccccc2)cc1
GI50 (A549): 0.305 µM (active) | GI50 (ACHN): 0.869 µM (active) | GI50 (COLO 205): 1.65 µM (inactive) | GI50 (HCC 2998): 0.942 µM (active) | GI50 (HL-60): 1.08 µM (active) | GI50 (HOP-62): 0.558 µM (active) | GI50 (HT-29): 1.3 µM (inactive) | GI50 (IGROV-1): 0.498 µM (active) | GI50 (K562): 1.09 µM (active) | GI50 (NCI-H522): 0.274 µM (active) | GI50 (OVCAR-3): 0.164 µM (active) | GI50 (OVCAR-8): 0.364 µM (active) | GI50 (SK-MEL-5): 0.401 µM (active) | GI50 (SNB-19): 0.333 µM (active) | GI50 (SNB-75): 0.371 µM (active) | GI50 (SW-620): 3.07 µM (inactive) | GI50 (TK-10): 0.54 µM (active) | GI50 (UACC-257): 0.386 µM (active)

CCc1cccc(C(C)C)c1N1C(=O)C(=O)C(c2nc3ccccc3s2)C(=O)C1=O
GI50 (A549): > 50 µM (inactive) | GI50 (ACHN): > 50 µM (inactive) | GI50 (COLO 205): 16.8 µM (inactive) | GI50 (HCC 2998): > 50 µM (inactive) | GI50 (HL-60): 12.3 µM (inactive) | GI50 (HOP-62): > 50 µM (inactive) | GI50 (HT-29): > 30.6 µM (inactive) | GI50 (IGROV-1): > 50 µM (inactive) | GI50 (K562): 16.3 µM (inactive) | GI50 (NCI-H522): 17.7 µM (inactive) | GI50 (OVCAR-3): > 25.5 µM (inactive) | GI50 (OVCAR-8): > 35.2 µM (inactive) | GI50 (SK-MEL-5): 21.8 µM (inactive) | GI50 (SNB-19): > 50 µM (inactive) | GI50 (SNB-75): > 50 µM (inactive) | GI50 (SW-620): 32.7 µM (inactive) | GI50 (TK-10): > 50 µM (inactive) | GI50 (UACC-257): > 39.3 µM (inactive)

CCOC(=O)C1=c2[nH]c3cccc4cccc(c43)n2C(=O)CC1
GI50 (A549): > 100 µM (inactive) | GI50 (ACHN): > 100 µM (inactive) | GI50 (COLO 205): 43.8 µM (inactive) | GI50 (DU-145): 51.6 µM (inactive) | GI50 (HCC 2998): 84.7 µM (inactive) | GI50 (HL-60): 17.3 µM (inactive) | GI50 (HOP-62): > 100 µM (inactive) | GI50 (IGROV-1): 49.4 µM (inactive) | GI50 (K562): > 100 µM (inactive) | GI50 (OVCAR-3): > 100 µM (inactive) | GI50 (OVCAR-8): 56.5 µM (inactive) | GI50 (SK-MEL-5): 65.3 µM (inactive) | GI50 (SNB-19): > 100 µM (inactive) | GI50 (SNB-75): > 100 µM (inactive) | GI50 (SW-620): 29 µM (inactive) | GI50 (TK-10): > 100 µM (inactive) | GI50 (UACC-257): > 100 µM (inactive)

C#Cc1cc(-c2nc3ccccc3s2)ccc1N
GI50 (A549): 16.3 µM (inactive) | GI50 (ACHN): 24 µM (inactive) | GI50 (COLO 205): 17.5 µM (inactive) | GI50 (DU-145): 16.7 µM (inactive) | GI50 (HCC 2998): 10.3 µM (inactive) | GI50 (HL-60): 24.7 µM (inactive) | GI50 (HOP-62): 37.3 µM (inactive) | GI50 (HT-29): 18 µM (inactive) | GI50 (IGROV-1): 0.615 µM (active) | GI50 (K562): 25.3 µM (inactive) | GI50 (NCI-H522): 15.8 µM (inactive) | GI50 (OVCAR-3): 16.8 µM (inactive) | GI50 (OVCAR-8): 29.2 µM (inactive) | GI50 (SK-MEL-5): 26.6 µM (inactive) | GI50 (SNB-19): 20 µM (inactive) | GI50 (SW-620): 34.6 µM (inactive) | GI50 (TK-10): 15.1 µM (inactive) | GI50 (UACC-257): 12.6 µM (inactive)

c1ccc2c(c1)nnn1c3cnccc3nc21
GI50 (A549): 30.9 µM (inactive) | GI50 (ACHN): 30.2 µM (inactive) | GI50 (COLO 205): 20.7 µM (inactive) | GI50 (HCC 2998): 46.5 µM (inactive) | GI50 (HL-60): 8.87 µM (inactive) | GI50 (HOP-62): 40.2 µM (inactive) | GI50 (HT-29): 28.2 µM (inactive) | GI50 (IGROV-1): 36.4 µM (inactive) | GI50 (K562): 21.6 µM (inactive) | GI50 (NCI-H522): 13.9 µM (inactive) | GI50 (OVCAR-3): 18.9 µM (inactive) | GI50 (OVCAR-8): 30 µM (inactive) | GI50 (SK-MEL-5): 52.6 µM (inactive) | GI50 (SNB-19): 47.6 µM (inactive) | GI50 (SNB-75): 25.4 µM (inactive) | GI50 (SW-620): 32.4 µM (inactive) | GI50 (TK-10): 35.2 µM (inactive) | GI50 (UACC-257): 85.1 µM (inactive)

Cc1cn2cc(-c3ccncc3)nc2s1
GI50 (A549): > 100 µM (inactive) | GI50 (ACHN): > 100 µM (inactive) | GI50 (COLO 205): > 71.8 µM (inactive) | GI50 (HCC 2998): > 100 µM (inactive) | GI50 (HL-60): > 19.8 µM (inactive) | GI50 (HOP-62): > 100 µM (inactive) | GI50 (HT-29): > 100 µM (inactive) | GI50 (IGROV-1): > 100 µM (inactive) | GI50 (K562): > 51.8 µM (inactive) | GI50 (NCI-H522): > 100 µM (inactive) | GI50 (OVCAR-3): > 100 µM (inactive) | GI50 (OVCAR-8): > 100 µM (inactive) | GI50 (SK-MEL-5): > 100 µM (inactive) | GI50 (SNB-19): > 100 µM (inactive) | GI50 (SNB-75): > 100 µM (inactive) | GI50 (SW-620): > 50 µM (inactive) | GI50 (TK-10): > 100 µM (inactive) | GI50 (UACC-257): > 100 µM (inactive)

O=C(Nc1ccc(Sc2ccc(/N=N/c3c(O)c(S(=O)(=O)O)cc4cc(S(=O)(=O)O)ccc34)cc2)cc1)c1ccc(/N=N/c2c(O)c(S(=O)(=O)O)cc3cc(S(=O)(=O)O)ccc23)cc1
GI50 (A549): 26.7 µM (inactive) | GI50 (ACHN): 29.9 µM (inactive) | GI50 (COLO 205): 15.9 µM (inactive) | GI50 (HCC 2998): > 100 µM (inactive) | GI50 (HL-60): 6.97 µM (inactive) | GI50 (HOP-62): 88.1 µM (inactive) | GI50 (HT-29): 32.1 µM (inactive) | GI50 (IGROV-1): 35.6 µM (inactive) | GI50 (K562): 19.4 µM (inactive) | GI50 (NCI-H522): 12.2 µM (inactive) | GI50 (OVCAR-3): 15.8 µM (inactive) | GI50 (OVCAR-8): 21 µM (inactive) | GI50 (SK-MEL-5): 13.5 µM (inactive) | GI50 (SNB-19): 48.3 µM (inactive) | GI50 (SNB-75): > 100 µM (inactive) | GI50 (SW-620): 28.3 µM (inactive) | GI50 (TK-10): 27.5 µM (inactive) | GI50 (UACC-257): 13.8 µM (inactive)
